This note sets out measurements from a melting point compilation (Tetko et al.).

`C1CNc2nn[nH]c2C1` came in with a melting point of 163 to 165 °C. Then `N#Cc1ccc(CSCC(=O)O)cc1`, with 86 to 88 °C; and `CC(C)c1ccc(-c2ncc(CSc3nnc(N)[nH]3)s2)cc1`, with 168 to 170 °C.

In turn, `COc1cc(CCC(=O)O)ccc1Cl` came in with a melting point of 132 to 134 °C. As to `O=C(O)c1cccc(Oc2ccc(Cl)cc2)n1`, the melting point was 115 to 117 °C. Then `Cc1n[nH]c(-c2ccccc2C)n1`, with 141 to 143 °C. Then `CC(CN)N1CCN(c2ccccc2)CC1` (configuration not stated), with 91 to 93 °C; and `Nc1ccc(Cl)c(S(=O)(=O)N2CCOCC2)c1`, with 157 to 159 °C. Then `Cc1cc(C(=O)O)c(C)n1-c1nccs1`, with 173 to 175 °C; and `O=C(Nc1ccccc1)c1ccc(CBr)cc1`, with 179 to 181 °C.

Compound `O=C(O)C1CCN(S(=O)(=O)c2ccccc2)CC1` registered a melting point of 156 to 158 °C.

As for `Cn1c(S)nnc1-c1cncc(N)c1`, the melting point was 206 to 208 °C. Then `Cc1oc2nc(CCl)nc(N)c2c1C`, with 179 to 181 °C; and `Cc1nn(Cc2ccc(F)cc2)c(Cl)c1C=O`, with 49 to 51 °C; and `CCN(CC)S(=O)(=O)c1ccc(O)c(N)c1`, with 74 to 76 °C.

Consider `O=Cc1ccc(-c2cccc(Cl)c2Cl)o1`, for which the melting point is 94 to 98 °C. For `COC(=O)c1cc2c(F)cc(F)cc2[nH]1`, the melting point fell in the range of 198 to 200 °C. Then `O=C(OCc1ccccc1)N1CCC(S(=O)(=O)Cl)CC1`, with 62 to 64 °C; and `NS(=O)(=O)c1cccnc1`, with 109 to 111 °C. Then `COc1ccc(C(N)=NO)cn1`, with 162 to 164 °C.

`COc1ccc(C(=O)CCCC(=O)O)cc1` gave a melting point of 138 to 140 °C. Regarding `NNc1cc(Cl)ncn1`, the melting point was 151 to 153 °C. The compound `O=C(O)Cn1nnc(-c2cccs2)n1` came in with a melting point of 220 to 222 °C. Then `O=S(=O)(Cl)CCS(=O)(=O)c1ccc(F)cc1`, with 145 to 147 °C; and `CCOc1ccc2ccccc2c1CO`, with 49 to 51 °C. `N#Cc1c[nH]c(C(=O)C(Cl)(Cl)Cl)c1` came in with a melting point of 134 to 136 °C. `COc1ccc(C(CN)c2c[nH]c3ccccc23)cc1` (configuration not stated): the melting point was 127 to 129 °C. `O=C(CCl)Nc1ccc(S(=O)(=O)N2CCOCC2)cc1` showed a melting point of 145 to 147 °C.

The compound `NNc1nccc(N2CCOCC2)n1` showed a melting point of 146 to 148 °C. Then `O=C(O)c1ccc(SCc2cn3ccccc3n2)cc1`, with 102 to 103 °C; and `Nc1nc(C(F)(F)F)no1`, with 97 to 99 °C; and `COCCCOc1ccc(C(=O)O)cc1`, with 112 to 114 °C.

`O=[N+]([O-])C=Cc1cccc2ccccc12` showed a melting point of 87 to 89 °C. Then `Cc1nn(-c2ccc(F)cc2)nc1C(=O)O`, with 167 to 169 °C; and `CN1C(=O)CC(C(=O)O)C1c1ccc(C(F)(F)F)cc1` (configuration not stated), with 145 to 147 °C; and `CCS(=O)(=O)N1CCCC(C(=O)O)C1` (configuration not stated), with 59 to 61 °C. Then `O=C(O)c1cn(-c2ccc(F)cc2)nn1`, with 159 to 161 °C; and `CC(C)(C)OC(=O)Oc1ccc(N)cc1`, with 112 to 114 °C.

Compound `O=C(Nc1ccc(S(=O)(=O)Cl)cc1)c1ccc(F)cc1` had a melting point of 149 to 151 °C.

As for `CN(c1ccc(-c2csc(N)n2)cc1)S(C)(=O)=O`, the melting point was 205 to 207 °C. Then `ClCc1nc(-c2ccsc2)no1`, with 52 to 56 °C. Turning to `CC(O)(C(=O)O)c1cccc2ccccc12` (configuration not stated), the melting point lay in the range of 145 to 147 °C. For the compound `CC1CCC(C(C)C)C(OC(=O)CSc2ccccc2C(=O)O)C1` (configuration not stated), the melting point was in the range of 137 to 139 °C. Then `c1ncn(C2CCNCC2)n1`, with 97 to 99 °C. Then `Nc1ccc(NC(=O)c2ccccc2F)cc1C(F)(F)F`, with 124 to 126 °C; and `ClCc1cccc(Cl)n1`, with 42 to 44 °C; and `COCCNC(=O)C1CCNCC1`, with 158 to 160 °C.

The melting point is the temperature, or range, at which the solid turns liquid.
